# Assay results taken from ChEMBL document CHEMBL4742398, “Heterocyclyl substituted pyrrolopyridines that are inhibitors of the cdk12 kinase” (2019).
# System: not listed separately
# Test: Decrease in nuclear foci in human DM1 fibroblast for 24 hrs by fluorescent in situ hybridization assay
# Format: functional
row,Compound,IC50
1,CCC(=O)N1CCC[C@H]1C(=O)NCCc1cc2c(-c3cnn4ncccc34)ccnc2[nH]1,10000 nM
2,O=C(CCl)Nc1ccc(C(=O)N2CCC(c3cc4c(-c5cnn6ncccc56)ccnc4[nH]3)C2)cc1 (stereo not drawn),< 1000 nM
3,C=CC(=O)N1CCC[C@H]1C(=O)NCCc1cc2c(-c3cnn(C)c3)ccnc2[nH]1,10000 nM
4,c1cc(-c2ccc3cn[nH]c3c2)c2cc[nH]c2n1,10000 nM
5,CN(C)C/C=C/C(=O)N1CC[C@@H](OCC(=O)N2CCC(c3cc4c(-c5cnn6ncccc56)ccnc4[nH]3)C2)C1 (stereo partly drawn),1000 nM
6,C=CC(=O)N1CC(C(=O)NCCc2cc3c(-c4cnn5ncccc45)ccnc3[nH]2)C1,1000 nM
7,C=CC(=O)Nc1ccc(C(=O)N2CCN(Cc3cc4c(-c5cnn6ncccc56)ccnc4[nH]3)CC2)cc1,1000 nM
8,C=CC(=O)N1CCC[C@@H]1C(=O)NCCc1cc2c(-c3cnn4ncccc34)c(Cl)cnc2[nH]1,< 1000 nM
9,O=C(CCl)Nc1cccc(C(=O)N2CC[C@H](c3cc4c(-c5cnn6ncccc56)ccnc4[nH]3)C2)c1,< 1000 nM
10,C=C(C)C(=O)N1CCC[C@H]1C(=O)NCCc1cc2c(-c3cnn4ncccc34)ccnc2[nH]1,10000 nM
11,C=CC(=O)Nc1ccc(C(=O)N2CCC(c3cc4c(-c5cnn6ncccc56)ccnc4[nH]3)C2)cc1 (stereo not drawn),< 1000 nM
12,C=CC(=O)Nc1ccc(C(=O)NCc2cc3c(-c4cnn5ncccc45)ccnc3[nH]2)cc1,1000 nM
13,C[C@@H](Cl)C(=O)N1CCC[C@@H]1C(=O)N1CCC(c2cc3c(-c4cnn5ncccc45)ccnc3[nH]2)C1 (stereo partly drawn),1000 nM
14,CN(C)C/C=C/C(=O)N1CCC[C@@H](C(=O)N2CCC(c3cc4c(-c5cnn6ncccc56)ccnc4[nH]3)C2)C1 (stereo partly drawn),1000 nM
15,N#CN1CCC[C@H](C(=O)NCCc2cc3c(-c4cnn5ncccc45)ccnc3[nH]2)C1,1000 nM
16,Cc1cc2c(-c3cnn4ncccc34)ccnc2[nH]1,< 1000 nM
17,CC(C)(CCl)C(=O)N1CCC[C@H]1C(=O)NCCc1cc2c(-c3cnn4ncccc34)ccnc2[nH]1,10000 nM
18,C=CC(=O)Nc1cccc(C(=O)N2CCC(c3cc4c(-c5cnn6ncccc56)ccnc4[nH]3)C2)c1 (stereo not drawn),< 1000 nM
19,C=CC(=O)N1CCC[C@@H](C(=O)NCCc2cc3c(-c4cnn5ncccc45)ccnc3[nH]2)C1,1000 nM

row,Compound,IC50
1,COc1ccc2c(-c3ccnc4[nH]ccc34)cnn2n1,10000 nM
2,C=CC(=O)Nc1ccc(C(=O)NCCc2cc3c(-c4cnn5ncccc45)ccnc3[nH]2)cc1,< 1000 nM
3,OCc1cc2c(-c3cnn4ncccc34)ccnc2[nH]1,1000 nM
4,c1cnn2ncc(-c3ccnc4[nH]ccc34)c2c1,< 1000 nM
5,C=CC(=O)N1CCC[C@@H]1C(=O)NCCc1cc2c(-c3cnn4ncccc34)ccnc2[nH]1,< 1000 nM
6,O=C([C@H]1CCCN1C(=O)CCl)N1CCC(c2cc3c(-c4cnn5ncccc45)ccnc3[nH]2)C1 (stereo partly drawn),< 1000 nM
7,C=CC(=O)N1C[C@H](F)C[C@H]1C(=O)NCCc1cc2c(-c3cnn4ncccc34)ccnc2[nH]1,< 1000 nM
8,C=CC(=O)N1CCC[C@H]1C(=O)OCCc1cc2c(-c3cnn4ncccc34)ccnc2[nH]1,< 1000 nM
9,C=CC(=O)N1CC2(CC2)C[C@H]1C(=O)NCCc1cc2c(-c3cnn4ncccc34)ccnc2[nH]1,1000 nM
10,C=CC(=O)Nc1cccc(C(=O)N2CC[C@H](c3cc4c(-c5cnn6ncccc56)ccnc4[nH]3)C2)c1,< 1000 nM
11,CN(C)C/C=C/C(=O)N1CCC[C@H]1C(=O)NCCc1cc2c(-c3cnn4ncccc34)ccnc2[nH]1,10000 nM
12,C=CC(=O)Nc1cccc(C(=O)N2CCN(Cc3cc4c(-c5cnn6ncccc56)ccnc4[nH]3)CC2)c1,1000 nM
13,O=C(CCl)Nc1cccc(C(=O)N2CCC(c3cc4c(-c5cnn6ncccc56)ccnc4[nH]3)C2)c1 (stereo not drawn),< 1000 nM
14,C=CC(=O)N1CCCC[C@H]1C(=O)NCCc1cc2c(-c3cnn4ncccc34)ccnc2[nH]1,1000 nM
15,CN(C)C/C=C/C(=O)N1CCC(CC(=O)N2CCC(c3cc4c(-c5cnn6ncccc56)ccnc4[nH]3)C2)CC1 (stereo not drawn),10000 nM
16,O=C(CCl)Nc1cccc(C(=O)N2CC[C@@H](c3cc4c(-c5cnn6ncccc56)ccnc4[nH]3)C2)c1,< 1000 nM
17,C=CC(=O)NC(Cc1ccccc1)C(=O)NCCc1cc2c(-c3cnn4ncccc34)ccnc2[nH]1 (stereo not drawn),1000 nM
18,C=CC(=O)Nc1cccc(C(=O)NCCc2cc3c(-c4cnn5ncccc45)ccnc3[nH]2)c1,< 1000 nM
19,C=CC(=O)N1CCC[C@H]1C(=O)NCCc1cc2c(-c3cnn4ncccc34)ccnc2[nH]1,< 1000 nM

row,Compound,IC50
1,C=CC(=O)Nc1ccc(C(=O)N2CCC(c3cc4c(-c5c[nH]c6ccccc56)ccnc4[nH]3)C2)cc1 (stereo not drawn),1000 nM
2,C=CC(=O)N1CCOC[C@@H]1C(=O)NCCc1cc2c(-c3cnn4ncccc34)ccnc2[nH]1,< 1000 nM
3,CN(C)C/C=C/C(=O)Nc1ccc(C(=O)N2CCC(c3cc4c(-c5cnn6ncccc56)ccnc4[nH]3)C2)cc1 (stereo not drawn),< 1000 nM
4,NC(=O)c1cc2c(-c3cnn4ncccc34)ccnc2[nH]1,1000 nM
5,CN(C)C/C=C/C(=O)Nc1cccc(C(=O)NCCc2cc3c(-c4cnn5ncccc45)ccnc3[nH]2)c1,10000 nM
6,C/C=C/C(=O)N1CCC[C@H]1C(=O)NCCc1cc2c(-c3cnn4ncccc34)ccnc2[nH]1,1000 nM
7,CC#CC(=O)N1CCC[C@H]1C(=O)NCCc1cc2c(-c3cnn4ncccc34)ccnc2[nH]1,1000 nM
8,C#CC(=O)Nc1cccc(C(=O)N2CCC(c3cc4c(-c5cnn6ncccc56)ccnc4[nH]3)C2)c1 (stereo not drawn),< 1000 nM
9,C=CC(=O)N1CCC[C@H]1C(=O)N1CCN(Cc2cc3c(-c4cnn5ncccc45)ccnc3[nH]2)CC1,10000 nM
10,C=CC(=O)N1CCC[C@H](C(=O)NCCc2cc3c(-c4cnn5ncccc45)ccnc3[nH]2)C1,< 1000 nM
11,c1cc(-c2ccc3[nH]nnc3c2)c2cc[nH]c2n1,10000 nM
12,CNC(=O)c1cc2c(-c3cnn4ncccc34)ccnc2[nH]1,1000 nM
13,C=CC(=O)N1CCC[C@H](C(=O)NCCc2cc3c(-c4cnn5ncccc45)c(Cl)cnc3[nH]2)C1,1000 nM
14,C=CC(=O)Nc1cc(C(=O)N2CCC(c3cc4c(-c5cnn6ncccc56)ccnc4[nH]3)C2)ccc1OC (stereo not drawn),< 1000 nM
15,C=CC(=O)N1CCC[C@H]1C(=O)N1CC[C@@H](c2cc3c(-c4cnn5ncccc45)ccnc3[nH]2)C1,< 1000 nM
16,CC(C)=CC(=O)N1CCC[C@H]1C(=O)NCCc1cc2c(-c3cnn4ncccc34)ccnc2[nH]1,1000 nM
17,C=CC(=O)NC(C)C(=O)NCCc1cc2c(-c3cnn4ncccc34)ccnc2[nH]1 (stereo not drawn),1000 nM
18,c1ccc(Cc2cc3c(-c4cnn5ncccc45)ccnc3[nH]2)cc1,10000 nM
19,"C=CC(=O)N1CCC1C(=O)NCCc1cc2c(-c3cnn4ncccc34)ccnc2[nH]1 (single isomer, unassigned)",< 1000 nM

# Biological target: CDK12/Cyclin K (Homo sapiens, UniProt Q9NYV4)
# Sequence (O75909 whole entry): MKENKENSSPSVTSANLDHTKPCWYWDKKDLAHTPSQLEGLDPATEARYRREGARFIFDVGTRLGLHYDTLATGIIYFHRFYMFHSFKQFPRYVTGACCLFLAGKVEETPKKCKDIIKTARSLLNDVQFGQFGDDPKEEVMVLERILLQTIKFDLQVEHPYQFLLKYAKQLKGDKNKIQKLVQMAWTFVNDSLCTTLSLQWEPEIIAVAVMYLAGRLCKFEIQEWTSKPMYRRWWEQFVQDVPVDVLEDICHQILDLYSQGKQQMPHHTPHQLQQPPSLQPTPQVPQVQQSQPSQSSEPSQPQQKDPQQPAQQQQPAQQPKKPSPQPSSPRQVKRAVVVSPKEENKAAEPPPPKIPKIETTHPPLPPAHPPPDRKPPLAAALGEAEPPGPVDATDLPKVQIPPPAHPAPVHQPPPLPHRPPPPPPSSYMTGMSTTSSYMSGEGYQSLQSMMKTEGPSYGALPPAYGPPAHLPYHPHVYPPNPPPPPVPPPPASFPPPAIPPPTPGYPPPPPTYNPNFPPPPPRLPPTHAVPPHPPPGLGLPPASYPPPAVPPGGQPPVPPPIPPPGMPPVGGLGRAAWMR
# Sequence (Q9NYV4 whole entry): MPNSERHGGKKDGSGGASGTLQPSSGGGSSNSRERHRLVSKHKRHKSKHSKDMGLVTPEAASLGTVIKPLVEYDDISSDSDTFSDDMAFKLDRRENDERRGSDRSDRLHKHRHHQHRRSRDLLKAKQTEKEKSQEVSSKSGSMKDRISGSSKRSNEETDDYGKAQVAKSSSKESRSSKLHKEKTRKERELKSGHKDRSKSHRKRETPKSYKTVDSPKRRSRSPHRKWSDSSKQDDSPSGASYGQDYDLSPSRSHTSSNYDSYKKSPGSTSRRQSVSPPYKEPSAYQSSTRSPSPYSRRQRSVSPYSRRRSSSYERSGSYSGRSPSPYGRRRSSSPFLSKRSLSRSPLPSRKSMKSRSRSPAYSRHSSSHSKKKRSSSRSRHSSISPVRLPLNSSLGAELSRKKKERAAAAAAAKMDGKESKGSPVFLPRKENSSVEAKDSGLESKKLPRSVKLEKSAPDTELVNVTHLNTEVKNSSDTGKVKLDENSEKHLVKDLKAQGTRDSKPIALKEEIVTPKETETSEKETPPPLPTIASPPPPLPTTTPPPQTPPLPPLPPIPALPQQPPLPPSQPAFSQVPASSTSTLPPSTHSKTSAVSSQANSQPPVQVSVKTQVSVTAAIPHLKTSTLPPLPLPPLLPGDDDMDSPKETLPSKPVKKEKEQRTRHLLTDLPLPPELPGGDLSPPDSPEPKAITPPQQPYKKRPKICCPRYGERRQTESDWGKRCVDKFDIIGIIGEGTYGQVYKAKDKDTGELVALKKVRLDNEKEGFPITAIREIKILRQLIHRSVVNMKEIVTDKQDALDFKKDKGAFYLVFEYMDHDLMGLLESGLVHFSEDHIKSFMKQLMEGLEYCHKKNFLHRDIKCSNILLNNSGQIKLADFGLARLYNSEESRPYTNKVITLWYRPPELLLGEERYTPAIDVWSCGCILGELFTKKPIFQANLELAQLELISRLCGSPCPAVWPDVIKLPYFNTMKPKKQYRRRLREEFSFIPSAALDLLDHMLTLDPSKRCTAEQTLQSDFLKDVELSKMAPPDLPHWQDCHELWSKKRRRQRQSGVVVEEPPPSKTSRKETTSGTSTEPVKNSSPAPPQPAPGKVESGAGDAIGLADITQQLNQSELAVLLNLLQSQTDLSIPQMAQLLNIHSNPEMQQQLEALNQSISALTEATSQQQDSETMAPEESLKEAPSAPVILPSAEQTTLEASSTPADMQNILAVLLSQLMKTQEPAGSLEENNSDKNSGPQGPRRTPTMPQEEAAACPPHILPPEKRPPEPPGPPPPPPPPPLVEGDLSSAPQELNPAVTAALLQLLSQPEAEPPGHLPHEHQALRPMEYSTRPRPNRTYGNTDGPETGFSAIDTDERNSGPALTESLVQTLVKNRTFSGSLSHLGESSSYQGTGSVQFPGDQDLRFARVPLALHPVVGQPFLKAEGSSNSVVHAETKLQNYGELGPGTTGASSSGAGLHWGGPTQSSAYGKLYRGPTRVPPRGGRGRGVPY
# Test: Inhibition of CDK12/cyclinK (unknown origin) using RBER-IRStide as substrate and in presence of ATP preincubated for 30 mins followed by addition of substrate measured after 1 hr by ADP-Glo reagent assay
# Format: protein-complex assay
row,IC50,Compound
1,≥ 1000 nM,c1cnn2ncc(-c3ccnc4[nH]c(CN5CCNCC5)cc34)c2c1
